Data on three compounds can be found in publication PMC8624457, “Synthesis and Characterization of the Ethylene-Carbonate-Linked L-Valine Derivatives of 4,4-Dimethylcurcumin with Potential Anticancer Activities” (Molecules, 2021).

Data set [1] can be described thus: Water solubility by LC-MS analysis. The class given is physicochemical. To be noted: for solubility: 25 °C, thermodynamic from solid, room temperature (25 ± 1 °C). The source says: 1-TFA, and 2-TFA with the linkage of L-valine-TFA side chain on either or both of the phenol groups were expected to show an increment of water solubility. We used LC-MS analysis to determine the water solubility of DMCU, 1-TFA, and 2-TFA. Initially, the LC signals detected by ESI+ mode for each compound were assigned as follows: [M + Na]^+ for DMCU, [M + H]^+ for 1-TFA, and [M + 2H]^2+ for 2-TFA (Figure 3A). The extracted ion chromatogram (XIC) was acquired by extracting the m/z signal of 419.1461 for DMCU, 583.2652 for 1-TFA, and 385.1865 for 2-TFA with a tolerance of ±5 ppm for each sample. The retention time of signals obtained from reverse phase liquid chromatography (RPLC) was 5.15 min (DMCU), 3.97 min (1-TFA), and 3.22 min (2-TFA) (Figure 3B). The limit of quantification was 0.16 ng for DMCU (S/N = 375.81) and 1 ng for 1-TFA (S/N = 231.24) or 2-TFA (S/N = 131.19). […] Next, to determine the water solubility of DMCU, 1-TFA and 2-TFA, aqueous solutions of these compounds at different concentrations were prepared for the generation of corresponding calibration curves.
The quantitative analysis was performed using LC-MS and the results were shown in Figure 3C–E. Corresponding saturated water solutions were prepared and then diluted with ultrapure water for LC-MS analysis. […] For the analysis of DMCU water solubility, a clear solution of DMCU in 40% MeOH and 60% water (with a concentration of 1000 ppm) was prepared and divided into four portions. Each part was diluted with an appropriate amount of ultrapure water, resulting in DMCU precipitates, and the precipitates were then removed by centrifugation to give four samples with theoretical concentrations of 0.8, 4, 20, 100 ppm, respectively. The calculated concentrations of these […] samples were decided by comparing the LC-MS signals of corresponding samples to the calibration curves. (Figure 3F). The maximum concentration of DMCU in water was confirmed as 18 ppm at room temperature.
The stock solutions of 1-TFA and 2-TFA were prepared by dissolving 20 mg of 1-TFA and 2-TFA, respectively, in 1 mL of 1% formic acid(aq). The standard solution of 1-TFA or 2-TFA of 0.5, 1.25, 2.5, 5 and 12.5 μg/mL was prepared by diluting the aforementioned stock solution with an adequate amount of 40% methanol in ultrapure water. The stock solution of DMCU was prepared by dissolving 10 mg of DMCU in 1 mL of methanol. The DMCU stock solution was diluted with 40% methanol in ultrapure water to afford three standard solutions with concentrations of 0.08, 0.4, and 2 μg/mL.
The saturated aqueous solutions of compound 1-TFA and 2-TFA were prepared by a three-steps sequence including supersaturated solution preparation (addition of 20 mg compounds into 50 μL ultrapure water), centrifugation (10 min at 14,000× g), and collection of the resulting supernatants to afford the desired solutions. The saturated aqueous solutions were then diluted by ultrapure water as the ratio of 1 to 100,000 for LC-MS analysis.
The LC-MS system consisted of an ultraperformance liquid chromatography (UPLC) system (ACQUITY UPLC I-Class, Waters, Milford, MA, USA and an ESI/APCI source of 4 kDa quadrupole time-of-flight mass spectrometer (Waters VION, Waters, Milford, MA, USA). A BEH C18 column (2.1 × 100 mm, Walters, Milford, MA, USA) was equipped to perform chromatographic separation. The flow rate of 0.2 mL/min with a column temperature of 35 °C was set for each sample injection. The elution started with 60% mobile phase A (ultrapure water + 0.1% formic acid) and 40% mobile phase B (100% methanol + 0.1% formic acid), then held at 40% B for 0.5 min, raised to 95% B in 5.5 min, held at 95% B for 1 min, and then lowered to 40% B in 1 min. The column was equilibrated by pumping 40% B for 4 min. […]

The next data set relates to A549. Kind of data set: In vitro antiproliferative MTT assay. The class given is cell-based. The conditions noted are these: Homo sapiens, A549, 72 h, mean ± SD. How it is done:
(§1) Human NSCLC cell lines (NCI-H460, NCI-H358 and A549) were obtained from ATCC. All cell lines were grown in RPMI medium supplemented with 10% fetal bovine serum (FBS) and antibiotics and incubated at 37 °C in a humidified atmosphere with 5% CO2.
(§2) Antiproliferative activities to various compounds was assessed using MTT assay. In brief, 2000–5000 cells were seeded in each well of 96-well plates and incubated at 37 °C overnight before drug treatment. After a three-day drug treatment, MTT solution was added to each well and the plates were further incubated at 37 °C for 6 h. Measurement of cell viability was assessed by absorbance at 570 nm. The IC50 values for each drug were determined using CompuSyn software based on the median-effect principle and plot.

In the next data set the test system is NCI-H358. Nature of the data set: In vitro antiproliferative MTT assay. The class given is cell-based. To be noted: Homo sapiens, NCI-H358, 72 h, mean ± SD. As to the method:
as §1, §2
A general note: Tetrazolium assays rely on reduction of a dye to a coloured formazan, in cell work by metabolically active cells.

In the next data set the test system is NCI-H460. Nature of the data set: In vitro antiproliferative MTT assay. The class given is cell-based. The conditions noted are these: Homo sapiens, NCI-H460, 72 h, mean ± SD. As to the method:
as §1, §2

Structures are written as SMILES. Converted amounts (≈) assume the structure as drawn. “And” between values parts separate entries of the source, which are not always exact repeats. Identical values can stand only once. Counter-ions that a name gives are not always drawn.

For `COc1cc(/C=C/C(=O)C(C)(C)C(=O)/C=C/c2ccc(OC(=O)OCCNC(=O)[C@@H](N)C(C)C)c(OC)c2)ccc1O` [Compound 1-TFA], in data set [1] (water, LC-MS), the solubility amounted to 250 mg/mL. For the same compound, in data set [1] (water, room temperature), the “fold increased solubility compared to DMCU” value is 13,700 fold and > 10,000 fold. In addition, the IC50 in the data set on A549 came out at 3.17 ± 0.14 µM; in the data set on NCI-H358, 1.92 ± 0.13 µM; in the data set on NCI-H460 it was 1.95 ± 0.16 µM.
`COc1cc(/C=C/C(=O)C(C)(C)C(=O)/C=C/c2ccc(OC(=O)OCCNC(=O)[C@@H](N)C(C)C)c(OC)c2)ccc1OC(=O)OCCNC(=O)[C@@H](N)C(C)C` [Compound 2-TFA] had a solubility in data set [1] (water, LC-MS) of 376 mg/mL. In addition, the “fold increased solubility compared to DMCU” value in data set [1] (water, room temperature) was 20,800 fold and > 10,000 fold. In addition, the figures for the IC50 in the data set on A549, with NCI-H358 and with NCI-H460 were 1.99 ± 0.24 µM, 1.26 ± 0.06 µM and 1.69 ± 0.04 µM, respectively.
Consider `COc1cc(/C=C/C(=O)C(C)(C)C(=O)/C=C/c2ccc(O)c(OC)c2)ccc1O` [DMCU, 4,4-Dimethylcurcumin], for which the “maximum concentration in water” value in data set [1] (room temperature, dilution of 40% MeOH solution with water, precipitate removed, LC-MS) turned out to be 18 ppm. In data set [1] (water), the “water solubility (in words)” value is reported as “virtually insoluble in water”. For the same compound, in data set [1] (water, LC-MS), the solubility was 0.018 mg/mL (≈ 45.4 µM). Further, the IC50 with A549 was found to be 2.5 ± 0.03 µM; in the data set on NCI-H358, 1.62 ± 0.12 µM; in the data set on NCI-H460, 2.13 ± 0.16 µM.

A word on the solubility: it is how much of the substance goes into solution per volume. Read a low solubility as a poorly soluble substance. One may read the IC50 as the concentration that inhibits the measured activity by half.
